The test system of experiment [1] is hyperlipidaemia caused by TRITON 1339. As to the kind of experiment: test for the hyperlipidaemia caused by TRITON 1339. As to conditions: rats, Triton test after oral administration for six days, 0.5 millimol per kilogram; for HDL cholesterol: Control 0.7 ± 0.1, Triton 0.8 ± 0.1; for Triglycerides: Control 1 ± 0.3, Triton 10 ± 7; for Total cholesterol: Control 2 ± 0.15, Triton 9 ± 3; for Total lipids: Control 3.5 ± 0.4, Triton 20 ± 10. Format: in vivo. On the procedure:
The Table below summarizes the results of the pharmacological studies carried out especially by means of the test for the hyperlipidaemia caused by TRITON 1339. The experimental protocol was that published by J. C. […] et al. (Gaz. Med. France, 3rd inter. coll. 1982, Dijon, 18-22). The tests are performed on groups of 7 rats weighing from 280 to 290 g. The Triton test is carried out after oral administration for six days at a rate of 0.5 millimol per kilogram of body weight. The following lipid parameters are measured: total cholesterol, triglycerides, total lipids and HDL cholesterol.

Another experiment deals with HMG-CoA red. The experiment is described as follows: HMG-CoA red. activity "ex vivo" in liver microsomes after chronic intraperitoneal administration to rats. On the set-up: Mevalonate formed: unit not given here. The following applies: 50 mg/kg for 6 days; for Mevalonate formed: Control 17; for % inhibition: inhibition of HMG-CoA red. activity, Control 0. The procedure: The inhibitory activity of the products according to the present invention was determined by the method of Kuroda et al. (Biochemica et Biophysica Acta, vol. 486, pp. 70-81 (1977)), which is a modification of the method of Shapiro et al. (Analytical Biochemistry, vol. 31, pp. 383-390 (1969)). […] The doses administered were 50 mg/kg for 6 days; six rats were used in each series; they are sacrificed without anaesthesia and the liver microsomes are isolated for the assay, which is performed according to the above-mentioned protocol.

The target of experiment [2] is T1, 3-hydroxy-3-methylglutaryl-CoA reductase (Rattus norvegicus, UniProt P51639).
T1 construct: from tissue
T1 sequence (P51639 1-887): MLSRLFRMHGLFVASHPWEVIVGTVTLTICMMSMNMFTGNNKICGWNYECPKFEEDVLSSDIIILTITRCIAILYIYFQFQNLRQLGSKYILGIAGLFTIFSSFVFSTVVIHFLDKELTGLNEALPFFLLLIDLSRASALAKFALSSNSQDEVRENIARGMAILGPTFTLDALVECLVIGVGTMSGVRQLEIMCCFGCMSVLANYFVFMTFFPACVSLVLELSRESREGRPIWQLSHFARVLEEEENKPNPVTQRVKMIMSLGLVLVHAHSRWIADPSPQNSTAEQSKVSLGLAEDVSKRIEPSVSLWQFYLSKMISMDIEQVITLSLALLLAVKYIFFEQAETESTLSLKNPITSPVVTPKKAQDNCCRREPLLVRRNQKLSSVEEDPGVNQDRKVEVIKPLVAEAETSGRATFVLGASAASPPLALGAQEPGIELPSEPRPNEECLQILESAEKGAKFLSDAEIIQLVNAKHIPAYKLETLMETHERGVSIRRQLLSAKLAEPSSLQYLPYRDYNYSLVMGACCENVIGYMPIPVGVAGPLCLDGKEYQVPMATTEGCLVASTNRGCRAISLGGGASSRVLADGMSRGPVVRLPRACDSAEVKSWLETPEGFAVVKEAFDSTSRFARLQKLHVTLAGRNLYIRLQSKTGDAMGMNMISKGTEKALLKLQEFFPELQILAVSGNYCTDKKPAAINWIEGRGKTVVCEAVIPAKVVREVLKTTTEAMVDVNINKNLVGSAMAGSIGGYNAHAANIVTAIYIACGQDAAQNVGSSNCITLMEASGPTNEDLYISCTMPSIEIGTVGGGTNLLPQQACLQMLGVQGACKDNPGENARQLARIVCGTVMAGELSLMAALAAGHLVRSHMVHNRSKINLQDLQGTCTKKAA
The experiment is described as follows: inhibition of 3-hydroxy-3-methylglutaryl-CoA reductase activity (method of Kuroda et al.). In kind it is biochemical. The following applies: concentration for 50% inhibition of 3-hydroxy-3-methylglutaryl-CoA reductase activity. On the procedure: The biosynthesis of cholesterol in an isolated enzymatic system or in a cell culture from organs removed from experimental animals is inhibited by limiting the activity of the enzyme 3-hydroxy-3-methylglutaryl-CoA reductase.
The inhibitory activity of the products according to the present invention was determined by the method of Kuroda et al. (Biochemica et Biophysica Acta, vol. 486, pp. 70-81 (1977)), which is a modification of the method of Shapiro et al. (Analytical Biochemistry, vol. 31, pp. 383-390 (1969)). The results are summarized in Table II, where IC50 is the concentration of product in the experimental medium which is necessary to achieve a 50% inhibition of the 3-hydroxy-3-methylglutaryl-CoA reductase activity, expressed in nanomol.

In experiment [1], `C[C@H]1C[C@H](OC(=O)C(C)(C)Oc2ccc(C(=O)c3ccc(Cl)cc3)cc2)CC(C)(C)C1` (relative stereo) [Example 1, (TRANS) 3,3,5-TRIMETHYLCYCLOHEXYL 2-(4-(4-CHLOROBENZOYL)PHENOXY)-2-METHYLPROPIONATE] gave an HDL cholesterol of 1.5 ± 0.4 mmol/L, a Triglycerides of 0.8 ± 0.1 mmol/L, a Total cholesterol of 3.5 ± 1.4 mmol/L and a Total lipids of 3.6 ± 0.5 g/L. Besides, in the experiment on HMG-CoA red., the Mevalonate formed is recorded as 4.44 and the “% inhibition” value was 74%.
In experiment [1], `Cc1ccc(C)c(OCCCC(C)(C)C(=O)O[C@H]2C[C@H](C)CC(C)(C)C2)c1` (relative stereo) [Example 6, (TRANS) 3,3,5-TRIMETHYLCYCLOHEXYL 2-(3-(2,5-DIMETHYLPHENOXY)PROPYL)-2-METHYLPROPIONATE] yielded an HDL cholesterol of 0.9 ± 0.3 mmol/L, a Triglycerides of 1.7 ± 0.3 mmol/L, a Total cholesterol of 2.0 ± 0.2 mmol/L and a Total lipids of 8.0 ± 3 g/L. Also, in the experiment with HMG-CoA red., the Mevalonate formed was determined as 6.01 and the “% inhibition” value worked out at 65%.
Turning to `C[C@@H]1C[C@H](OC(=O)C(C)(C)Oc2ccc(-c3ccccc3)cc2)CC(C)(C)C1` (relative stereo) [Example 8, (CIS) 3,3,5-TRIMETHYLCYCLOHEXYL 2-(4-PHENYLPHENOXY)-2-METHYLPROPIONATE], in experiment [1], the HDL cholesterol was found to be 1.1 ± 0.2 mmol/L, the Triglycerides came out at 6.0 ± 4 mmol/L, the Total cholesterol worked out at 3.0 ± 0.2 mmol/L and the Total lipids was 3.6 ± 0.2 g/L.
In the same order, the values of `CCC(=O)c1ccc(OC(C)(C)C(=O)O[C@H]2C[C@H](C)CC(C)(C)C2)cc1` (relative stereo) [Example 9, (TRANS) 3,3,5-TRIMETHYLCYCLOHEXYL 2-(4-PROPIONYLPHENOXY)-2-METHYLPROPIONATE] are 2.0 ± 0.6 mmol/L, 1.6 ± 0.3 mmol/L, 2.5 ± 0.6 mmol/L and 5.0 ± 0.2 g/L.
In experiment [2], `CCC(=O)c1ccc(OC(C)(C)C(=O)O[C@H]2C[C@@H](C)CC(C)(C)C2)cc1` (relative stereo) [Example 10, (CIS) 3,3,5-TRIMETHYLCYCLOHEXYL 2-(4-PROPIONYLPHENOXY)-2-METHYLPROPIONATE] displayed an IC50 of 37.6 nM.
In experiment [1], `CC(=O)c1ccc(OC(C)(C)C(=O)O[C@H]2C[C@H](C)CC(C)(C)C2)c(Cl)c1` (relative stereo) [Example 11, (TRANS) 3,3,5-TRIMETHYLCYCLOHEXYL 2-(4-ACETYL-2-CHLOROPHENOXY)-2-METHYLPROPIONATE] registered an HDL cholesterol of 1.0 ± 0.1 mmol/L, a Triglycerides of 1.0 ± 0.1 mmol/L, a Total cholesterol of 1.8 ± 0.4 mmol/L and a Total lipids of 11 ± 5 g/L.
Consider `CC(=O)c1ccc(OC(C)(C)C(=O)O[C@H]2C[C@@H](C)CC(C)(C)C2)c(Cl)c1` (relative stereo) [Example 12, (CIS) 3,3,5-TRIMETHYLCYCLOHEXYL 2-(4-ACETYL-2-CHLOROPHENOXY)-2-METHYLPROPIONATE], for which inhibition in experiment [2] was half-maximal at 21.9 nM (IC50).
In experiment [2], `CC(=O)c1cccc(OC(C)(C)C(=O)O[C@H]2C[C@H](C)CC(C)(C)C2)c1` (relative stereo) [Example 13, (TRANS) 3,3,5-TRIMETHYLCYCLOHEXYL 2-(3-ACETYLPHENOXY)-2-METHYLPROPIONATE] returned an IC50 of 35.7 nM.
In experiment [1], `CC(=O)c1cccc(OC(C)(C)C(=O)O[C@H]2C[C@@H](C)CC(C)(C)C2)c1` (relative stereo) [Example 14, (CIS) 3,3,5-TRIMETHYLCYCLOHEXYL 2-(3-ACETYLPHENOXY)-2-METHYLPROPIONATE] registered an HDL cholesterol of 2.1 ± 0.1 mmol/L, a Triglycerides of 6.0 ± 3.0 mmol/L, a Total cholesterol of 3.0 ± 0.3 mmol/L and a Total lipids of 4.8 ± 0.6 g/L.
In the same order, the values of `CC(=O)c1ccc(OC(C)(C)C(=O)O[C@@H]2C[C@@H](C)CC(C)(C)C2)cc1` (relative stereo) [Example 15, (TRAMS) 3,3,5-TRIMETHYLCYCLOHEXYL 2-(4-ACETYLPHENOXY)-2-METHYLPROPIONATE] are 1.7 ± 0.1 mmol/L, 1.7 ± 1.2 mmol/L, 2.8 ± 0.2 mmol/L and 3.0 ± 0.3 g/L.
With `CC(=O)c1ccc(OC(C)(C)C(=O)O[C@H]2C[C@@H](C)CC(C)(C)C2)cc1` (relative stereo) [Example 16, (CIS) 3,3,5-TRIMETHYLCYCLOHEXYL 2-(4-ACETYLPHENOXY)-2-METHYLPROPIONATE], the IC50 in experiment [2] came to 45.9 nM.
For the compound `C[C@H]1C[C@H](OC(=O)C(C)(C)Oc2ccc(C(=O)Cc3ccccc3)cc2)CC(C)(C)C1` (relative stereo) [Example 17, (TRANS) 3,3,5-TRIMETHYLCYCLOHEXYL 2-(4-PHENYLACETYLPHENOXY)-2-METHYLPROPIONATE], in the experiment with HMG-CoA red., the Mevalonate formed amounted to 8.66 and the “% inhibition” value was 50%.
Regarding `C[C@@H]1C[C@H](OC(=O)C(C)(C)Oc2ccc(C(=O)Cc3ccccc3)cc2)CC(C)(C)C1` (relative stereo) [Example 18, (CIS) 3,3,5-TRIMETHYLCYCLOHEXYL 2-(4-PHENYLACETYLPHENOXY)-2-METHYLPROPIONATE], in experiment [2], the midpoint of inhibition, the IC50, lay at 32.9 nM.
As for `C[C@H]1C[C@H](OC(=O)C(C)(C)CCCCOc2ccccc2)CC(C)(C)C1` (relative stereo) [Example 19, (TRANS) 3,3,5-TRIMETHYLCYCLOHEXYL 2-(4-PHENOXYBUTYL)- 2-METHYLPROPIONATE], in the experiment on HMG-CoA red., the Mevalonate formed is 5.2 and the “% inhibition” value stood at 70%.
For `C[C@@H]1C[C@H](OC(=O)C(C)(C)CCCCOc2ccccc2)CC(C)(C)C1` (relative stereo) [Example 20, (CIS) 3,3,5-TRIMETHYLCYCLOHEXYL 2-(4-PHENOXYBUTYL)-2-METHYLPROPIONATE], in experiment [2], the IC50 stood at 40.5 nM.
Take `Cc1ccc(OCCCCC(C)(C)C(=O)O[C@H]2C[C@@H](C)CC(C)(C)C2)c(C)c1` (relative stereo) [Example 21, (CIS) 3,3,5-TRIMETHYLCYCLOHEXYL 2-(4-(2,4-DIMETHYLPHENOXY)BUTYL)-2-METHYLPROPIONATE]: in the experiment with HMG-CoA red., the Mevalonate formed was 3.8 and the “% inhibition” value came to 78%.
In experiment [2], `Cc1cc(C)cc(OCCCCC(C)(C)C(=O)O[C@H]2C[C@@H](C)CC(C)(C)C2)c1` (relative stereo) [Example 22, (CIS) 3,3,5-TRIMETHYLCYCLOHEXYL 2-(4-(3,5-DIMETHYLPHENOXY)BUTYL)-2-METHYLPROPIONATE] had an IC50 of 30.2 nM.
Take `CC(C)OC(=O)C(C)(C)Oc1ccc(C(=O)c2ccc(Cl)cc2)cc1` [Fenofibrate, isopropyl 4-(4-chlorobenzoyl)phenoxyisobutyrate, reference compound]: the Mevalonate formed in the experiment on HMG-CoA red. is recorded as 4.16.

For the origin of these results see patent US5310757A, “3,3,5-trimethylcyclohexyl 2-methylpropionate derivatives, their method of preparation and therapeutic compositions in which they are present” (Panmedica, priority 1989, dated 1994).
